Measured values: ChEMBL document CHEMBL1201862, “PubChem BioAssay data set” (2004)
Values belong to the compound of their own block, whether it stands above or below them. Active and inactive are the calls of the source.

How the values were obtained:
[1] = molecular target: Bcl-2-like protein 10 (Homo sapiens, UniProt Q9HD36); assay: Bcl-B/TR3 peptide binding disruption – biochemical, fluorescence polarization, FITC-TR3 peptide, selectivity assay for Bfl-1 inhibitor project, primary screen (AID 748);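 also: fluorescence polarization from a fluorescein-labelled TR3 peptide binding purified Bcl-B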
Bcl-2-like protein 10, sequence (Q9HD36 whole entry): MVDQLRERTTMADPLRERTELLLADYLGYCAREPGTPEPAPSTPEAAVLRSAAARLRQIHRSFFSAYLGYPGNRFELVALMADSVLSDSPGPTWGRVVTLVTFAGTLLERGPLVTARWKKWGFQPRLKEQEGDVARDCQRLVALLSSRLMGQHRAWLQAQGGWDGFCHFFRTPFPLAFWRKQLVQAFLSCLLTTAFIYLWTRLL

[2] = viability loss in THP-1 monocytes – THP-1 cells, cytotoxicity control for Vif-APOBEC3G degradation inhibitor project, dose response (AID 1117359); type: functional; details: THP-1
[3] = molecular target: T1, Estrogen receptor beta (Homo sapiens, UniProt Q92731); assay: blockers of SRC-3 recruitment to ERβ – biochemical, ELISA, streptavidin-HRP readout, orthogonal assay, confirmation (AID 1060)
T1 sequence (Q92731 whole entry): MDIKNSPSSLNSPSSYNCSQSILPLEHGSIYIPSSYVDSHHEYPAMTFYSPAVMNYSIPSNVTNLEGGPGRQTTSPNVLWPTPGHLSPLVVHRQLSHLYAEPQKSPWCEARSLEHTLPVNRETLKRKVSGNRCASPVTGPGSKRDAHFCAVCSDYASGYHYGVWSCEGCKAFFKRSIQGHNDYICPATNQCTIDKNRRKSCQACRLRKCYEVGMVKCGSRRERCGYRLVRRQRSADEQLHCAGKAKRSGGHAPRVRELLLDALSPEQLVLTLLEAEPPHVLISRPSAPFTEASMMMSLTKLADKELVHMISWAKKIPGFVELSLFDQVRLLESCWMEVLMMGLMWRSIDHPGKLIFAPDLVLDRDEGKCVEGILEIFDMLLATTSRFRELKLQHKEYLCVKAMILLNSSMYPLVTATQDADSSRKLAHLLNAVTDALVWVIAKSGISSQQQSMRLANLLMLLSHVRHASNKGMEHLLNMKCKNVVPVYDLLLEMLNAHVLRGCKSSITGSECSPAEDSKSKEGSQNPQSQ

[4] = molecular target: Bcl-2-like protein 1 (Homo sapiens, UniProt Q07817); assay: blockers of BCLXL peptide binding – biochemical, fluorescence polarization, 1536-well, selectivity assay for MCL1 inhibitor project, dose response (AID 2218)
Bcl-2-like protein 1, sequence (Q07817 whole entry): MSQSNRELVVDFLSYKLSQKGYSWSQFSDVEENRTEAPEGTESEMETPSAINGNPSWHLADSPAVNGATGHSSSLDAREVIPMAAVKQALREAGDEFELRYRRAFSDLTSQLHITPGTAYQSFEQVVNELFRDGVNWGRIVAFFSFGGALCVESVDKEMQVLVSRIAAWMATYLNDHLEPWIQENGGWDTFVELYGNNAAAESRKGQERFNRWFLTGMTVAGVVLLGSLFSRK

[5] = molecular target: Protein Tat (Human immunodeficiency virus type 1 group M subtype B (isolate HXB2)(HIV-1), UniProt P04608); type: functional;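 also: tat binding to TAR RNA read out by fluorescence polarization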
Protein Tat, sequence (P04608 whole entry): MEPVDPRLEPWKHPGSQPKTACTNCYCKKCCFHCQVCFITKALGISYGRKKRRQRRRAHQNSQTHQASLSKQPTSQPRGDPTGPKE

[6] = molecular target: Induced myeloid leukemia cell differentiation protein Mcl-1 (Homo sapiens, UniProt Q07820); assay: blockers of MCL1 binding to BIM peptide – biochemical, fluorescence polarization, BIM-BH3 peptide, 1536-well, dose response (AID 2217)
Induced myeloid leukemia cell differentiation protein Mcl-1, sequence (Q07820 whole entry): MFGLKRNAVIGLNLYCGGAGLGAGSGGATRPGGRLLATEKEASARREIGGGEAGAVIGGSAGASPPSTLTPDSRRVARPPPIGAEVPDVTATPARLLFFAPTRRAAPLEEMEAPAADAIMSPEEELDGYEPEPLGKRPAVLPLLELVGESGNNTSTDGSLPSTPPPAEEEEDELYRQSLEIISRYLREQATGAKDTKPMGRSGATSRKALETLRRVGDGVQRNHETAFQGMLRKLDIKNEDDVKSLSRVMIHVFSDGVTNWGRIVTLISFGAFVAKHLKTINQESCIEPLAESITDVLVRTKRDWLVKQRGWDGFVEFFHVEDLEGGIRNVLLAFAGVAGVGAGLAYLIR

[7] = molecular target: Acyl-homoserine lactone acylase PvdQ (Pseudomonas aeruginosa (strain LESB58), UniProt Q9I194); assay: PvdQ acylase enzyme activity blockers – biochemical, fluorescence, plate reader and imaging, cherry-picks, dose response (AID 493231)
Acyl-homoserine lactone acylase PvdQ, sequence (Q9I194 24-193 limits assumed): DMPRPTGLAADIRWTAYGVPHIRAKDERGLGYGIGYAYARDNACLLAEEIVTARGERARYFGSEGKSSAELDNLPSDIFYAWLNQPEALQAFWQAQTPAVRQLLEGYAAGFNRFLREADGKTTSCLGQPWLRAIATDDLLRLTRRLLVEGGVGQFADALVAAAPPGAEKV
Acyl-homoserine lactone acylase PvdQ, sequence (Q9I194 217-762 limits assumed): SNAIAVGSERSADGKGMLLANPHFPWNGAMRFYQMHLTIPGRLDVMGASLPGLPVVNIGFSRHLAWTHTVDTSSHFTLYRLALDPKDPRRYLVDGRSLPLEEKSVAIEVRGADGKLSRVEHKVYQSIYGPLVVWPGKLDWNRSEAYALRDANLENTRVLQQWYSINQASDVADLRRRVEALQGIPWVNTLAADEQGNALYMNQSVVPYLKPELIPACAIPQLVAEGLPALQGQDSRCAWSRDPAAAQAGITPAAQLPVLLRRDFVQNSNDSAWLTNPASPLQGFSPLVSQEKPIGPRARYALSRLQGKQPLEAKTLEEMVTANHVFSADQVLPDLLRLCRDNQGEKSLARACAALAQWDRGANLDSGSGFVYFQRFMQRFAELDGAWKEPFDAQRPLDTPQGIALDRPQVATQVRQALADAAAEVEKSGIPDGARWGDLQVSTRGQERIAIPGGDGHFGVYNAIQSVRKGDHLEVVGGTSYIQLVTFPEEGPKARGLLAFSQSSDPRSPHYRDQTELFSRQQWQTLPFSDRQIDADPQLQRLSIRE

[8] = molecular target: T2, Coagulation factor XII (Homo sapiens, UniProt P00748); assay: activated coagulation factor XII inhibitor potency, concentration-effect curve, cell-free (AID 716); type: functional
T2 sequence (P00748 whole entry): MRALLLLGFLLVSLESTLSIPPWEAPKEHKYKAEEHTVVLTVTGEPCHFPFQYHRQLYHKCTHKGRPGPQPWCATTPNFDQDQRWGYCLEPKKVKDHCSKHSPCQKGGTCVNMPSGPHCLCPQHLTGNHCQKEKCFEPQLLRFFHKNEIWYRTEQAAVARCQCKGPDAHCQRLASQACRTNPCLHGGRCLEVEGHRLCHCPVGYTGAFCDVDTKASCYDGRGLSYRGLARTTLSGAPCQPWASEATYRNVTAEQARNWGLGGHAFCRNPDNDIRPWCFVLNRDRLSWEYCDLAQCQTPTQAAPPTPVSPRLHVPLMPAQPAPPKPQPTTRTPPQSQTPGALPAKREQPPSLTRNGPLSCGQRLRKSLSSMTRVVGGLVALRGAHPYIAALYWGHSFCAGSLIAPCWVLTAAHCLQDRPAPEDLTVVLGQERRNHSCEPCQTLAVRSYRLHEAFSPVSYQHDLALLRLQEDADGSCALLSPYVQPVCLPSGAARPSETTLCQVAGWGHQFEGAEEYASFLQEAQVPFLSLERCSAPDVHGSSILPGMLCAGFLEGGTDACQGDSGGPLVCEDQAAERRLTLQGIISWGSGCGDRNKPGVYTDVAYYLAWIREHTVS

[9] = molecular target: Glyceraldehyde-3-phosphate dehydrogenase (Homo sapiens, UniProt P04406)
Glyceraldehyde-3-phosphate dehydrogenase, sequence (P04406 whole entry): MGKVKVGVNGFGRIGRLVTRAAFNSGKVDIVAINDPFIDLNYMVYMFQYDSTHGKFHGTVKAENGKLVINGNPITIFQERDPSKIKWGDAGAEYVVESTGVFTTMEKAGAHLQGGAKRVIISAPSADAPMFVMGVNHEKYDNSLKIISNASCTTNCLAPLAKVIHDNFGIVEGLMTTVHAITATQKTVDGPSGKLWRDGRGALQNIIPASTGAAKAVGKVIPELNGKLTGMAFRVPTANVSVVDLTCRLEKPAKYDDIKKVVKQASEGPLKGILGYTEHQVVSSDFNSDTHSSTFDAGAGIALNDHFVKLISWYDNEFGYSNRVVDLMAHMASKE

[10] = molecular target: T3, Alkaline phosphatase, tissue-nonspecific isozyme (Homo sapiens, UniProt P05186); assay: potency against alkaline phosphatase TNAP – biochemical, luminescent, dose response, SAR follow-up (AID 1056)
T3 sequence (P05186 whole entry): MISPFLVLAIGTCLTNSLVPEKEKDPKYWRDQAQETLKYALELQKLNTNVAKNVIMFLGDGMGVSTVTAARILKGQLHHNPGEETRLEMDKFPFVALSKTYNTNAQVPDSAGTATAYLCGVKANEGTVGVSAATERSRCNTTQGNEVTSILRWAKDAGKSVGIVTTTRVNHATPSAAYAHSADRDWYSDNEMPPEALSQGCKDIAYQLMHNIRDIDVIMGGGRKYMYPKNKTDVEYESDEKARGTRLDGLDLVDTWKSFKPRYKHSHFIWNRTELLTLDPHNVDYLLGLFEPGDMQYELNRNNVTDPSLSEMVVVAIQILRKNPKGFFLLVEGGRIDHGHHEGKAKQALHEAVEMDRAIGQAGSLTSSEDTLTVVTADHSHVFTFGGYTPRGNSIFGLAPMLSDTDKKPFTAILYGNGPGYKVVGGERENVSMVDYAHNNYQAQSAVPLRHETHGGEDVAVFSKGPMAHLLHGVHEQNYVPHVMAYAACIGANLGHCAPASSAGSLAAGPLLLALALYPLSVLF

[11] = molecular target: NADPH oxidase 1 (Homo sapiens, UniProt Q9Y5S8); type: functional, cell-based;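 also: Cell-based assay with luminescence read-out, IC50 derived from inhibitor dose-response curves; intracellular ROS from endogenous NOX1 in intact HT29 colon cancer cells; potency of inhibitors that lower the ROS luminescence signal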
NADPH oxidase 1, sequence (Q9Y5S8 whole entry): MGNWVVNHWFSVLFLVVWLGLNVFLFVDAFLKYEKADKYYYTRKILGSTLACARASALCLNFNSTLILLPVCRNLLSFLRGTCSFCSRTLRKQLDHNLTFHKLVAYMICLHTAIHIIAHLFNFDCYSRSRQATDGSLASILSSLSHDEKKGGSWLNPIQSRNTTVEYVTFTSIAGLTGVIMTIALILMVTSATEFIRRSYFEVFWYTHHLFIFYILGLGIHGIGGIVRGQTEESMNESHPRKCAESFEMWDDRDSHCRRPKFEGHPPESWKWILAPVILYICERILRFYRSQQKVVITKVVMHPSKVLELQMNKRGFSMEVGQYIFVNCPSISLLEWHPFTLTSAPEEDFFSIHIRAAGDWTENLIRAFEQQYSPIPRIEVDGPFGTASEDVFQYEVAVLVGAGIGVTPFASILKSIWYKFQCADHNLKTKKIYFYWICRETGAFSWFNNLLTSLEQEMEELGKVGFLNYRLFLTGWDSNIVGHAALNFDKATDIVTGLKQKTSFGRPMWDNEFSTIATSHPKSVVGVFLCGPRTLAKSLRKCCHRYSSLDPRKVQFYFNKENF

[12] = molecular target: T4, Sphingosine 1-phosphate receptor 4 (Homo sapiens, UniProt O95977); assay: Late-stage fluorescence dose response cell-based assay to identify agonists of the Sphingosine 1-Phosphate Receptor 4 (S1P4): purchased compounds EC50. [Related pubchem assays (depositor defined):AID1509, AID1523, AID1563, AID1686, AID1701, AID1801]; type: functional
T4 sequence (O95977 whole entry): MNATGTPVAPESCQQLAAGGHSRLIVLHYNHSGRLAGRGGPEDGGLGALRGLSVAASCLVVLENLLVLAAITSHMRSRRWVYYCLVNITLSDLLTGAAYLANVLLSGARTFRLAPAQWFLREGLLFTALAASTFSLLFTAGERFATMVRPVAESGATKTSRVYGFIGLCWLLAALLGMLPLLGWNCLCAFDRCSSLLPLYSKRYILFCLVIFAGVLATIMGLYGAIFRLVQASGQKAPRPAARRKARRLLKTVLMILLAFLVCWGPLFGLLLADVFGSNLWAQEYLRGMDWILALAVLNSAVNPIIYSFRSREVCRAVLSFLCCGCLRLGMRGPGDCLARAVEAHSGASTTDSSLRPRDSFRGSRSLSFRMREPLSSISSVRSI

[13] = molecular target: Hexokinase (Trypanosoma brucei, UniProt Q38C41); assay: Confirmation assay for inhibitors of Trypanosoma brucei hexokinase 1-Analogue-first series. [Related pubchem assays (depositor defined):AID1430, AID1632, AID2516, AID2560, AID2579, AID2600, AID449725, AID492951]; type: functional
Hexokinase, sequence (Q38C41 whole entry): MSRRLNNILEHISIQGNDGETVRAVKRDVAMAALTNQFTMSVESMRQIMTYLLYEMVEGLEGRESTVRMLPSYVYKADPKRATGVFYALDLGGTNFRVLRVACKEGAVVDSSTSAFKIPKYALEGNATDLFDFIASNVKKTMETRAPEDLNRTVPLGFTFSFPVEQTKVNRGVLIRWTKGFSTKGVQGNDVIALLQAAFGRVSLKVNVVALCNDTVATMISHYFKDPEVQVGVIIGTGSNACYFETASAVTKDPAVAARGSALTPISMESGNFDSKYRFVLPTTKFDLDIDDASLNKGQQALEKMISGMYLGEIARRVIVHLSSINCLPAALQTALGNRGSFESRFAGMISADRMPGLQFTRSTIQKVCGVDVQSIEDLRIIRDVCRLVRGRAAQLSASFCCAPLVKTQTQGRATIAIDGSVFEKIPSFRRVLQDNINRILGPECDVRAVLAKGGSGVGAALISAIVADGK

[14] = molecular target: Eukaryotic translation initiation factor 4E (Mus musculus, UniProt P63073); assay: blockers of eIF4G binding by eIF4E – biochemical, TR-FRET, dose response (AID 855); type: functional;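 also: potency for disrupting eIF4E binding to eIF4GI seen as loss of FRET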
Eukaryotic translation initiation factor 4E, sequence (P63073 whole entry): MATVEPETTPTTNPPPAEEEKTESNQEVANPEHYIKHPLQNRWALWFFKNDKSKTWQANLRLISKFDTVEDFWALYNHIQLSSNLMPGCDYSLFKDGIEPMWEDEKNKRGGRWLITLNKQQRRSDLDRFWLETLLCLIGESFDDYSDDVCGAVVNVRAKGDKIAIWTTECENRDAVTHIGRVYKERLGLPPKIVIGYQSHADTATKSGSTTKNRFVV

[15] = molecular target: T5, Dual specificity protein phosphatase 6 (Rattus norvegicus, UniProt Q64346); assay: inhibition of rat DUSP6 enzyme activity – biochemical, in vitro, primary screen (AID 425)
T5 sequence (Q64346 whole entry): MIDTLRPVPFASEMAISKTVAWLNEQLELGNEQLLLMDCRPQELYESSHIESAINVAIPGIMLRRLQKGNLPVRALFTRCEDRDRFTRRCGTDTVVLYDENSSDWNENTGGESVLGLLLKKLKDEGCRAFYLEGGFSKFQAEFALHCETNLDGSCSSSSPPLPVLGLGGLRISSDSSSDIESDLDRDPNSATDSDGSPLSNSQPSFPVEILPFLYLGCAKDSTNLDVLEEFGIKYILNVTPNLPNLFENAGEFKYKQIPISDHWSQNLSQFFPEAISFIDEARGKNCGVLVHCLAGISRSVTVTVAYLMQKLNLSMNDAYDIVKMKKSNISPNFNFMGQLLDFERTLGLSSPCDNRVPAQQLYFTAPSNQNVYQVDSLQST

[16] = molecular target: T6, Tyrosine-protein phosphatase non-receptor type 7 (Homo sapiens, UniProt P35236); assay: HePTP tyrosine phosphatase activity blockers – biochemical, absorbance, leukemia target, primary screen (AID 521); type: functional
T6 sequence (P35236 whole entry): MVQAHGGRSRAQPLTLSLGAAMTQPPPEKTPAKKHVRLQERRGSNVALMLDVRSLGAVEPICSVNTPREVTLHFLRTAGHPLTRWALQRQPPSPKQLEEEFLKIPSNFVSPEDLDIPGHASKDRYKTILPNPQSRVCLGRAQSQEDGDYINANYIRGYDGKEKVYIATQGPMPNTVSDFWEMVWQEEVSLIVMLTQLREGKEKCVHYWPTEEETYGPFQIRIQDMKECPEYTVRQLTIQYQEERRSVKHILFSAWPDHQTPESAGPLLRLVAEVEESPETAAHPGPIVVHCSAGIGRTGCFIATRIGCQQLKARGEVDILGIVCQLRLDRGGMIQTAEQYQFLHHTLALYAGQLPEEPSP

[17] = molecular target: T1, Estrogen receptor beta

Structure (SMILES): CC(=N)/C(C#N)=C(/O)CSc1nnc(NC(C)C)s1
- IC50 [1]: 23.7 µM (active)
- CC50 [2]: > 40 µM (active)
- IC50 [3]: < 0.023 µM (not active)
- IC50 [4]: > 109 µM (not active)
- IC50 [5]: > 100 µM (active)
- IC50 [6]: 16.3 µM (not active)

Structure (SMILES): COc1ccc(C(C#N)c2ccc(Cl)nn2)cc1 (centres undefined)
- AC50 [7]: 6.48 µM (active)

Structure (SMILES): O=C(Nc1ccc(Cl)c(Cl)c1)N1CC=CCC1
- IC50 [8]: > 50 µM (inactive)

Structure (SMILES): CCCc1ccc(C(=O)Nc2cc(Cl)ccc2C(=O)O)cc1
- IC50 [13]: 4.54 µM (active)

Structure (SMILES): O=C(OC1CCCCC1)c1ccc2c(c1)C1C=CCC1C(C(=O)O)N2 (centres undefined)
- IC50 [1]: 2 µM (active)
- IC50 [14]: 5.02 µM (active)
- IC50 [15]: 1.83 µM (active)
- IC50 [16]: 0.84 µM (active)

Structure (SMILES): COc1cc(CCC(=O)OCC(=O)Nc2ncc(Cl)cc2Cl)cc(OC)c1OC
- IC50 [3]: 102 µM (not active)
- IC50 [17]: 9.58 µM (active)

Results, then the compound that gave them:

- IC50 [9]: > 10 µM (inconclusive)
- IC50 [10]: > 10 µM (inactive)
Structure (SMILES): COc1ccc(OC)c(S(=O)(=O)Nc2ccc3ccccc3c2)c1

- IC50 [11]: > 17 µM (not active)
Structure (SMILES): COc1cc([N+](=O)[O-])ccc1NC(=O)Nc1ccc(Oc2ccccc2)cc1

- EC50 [12]: > 50 µM (inactive)
Structure (SMILES): Cc1ccc(OC(C)C(=O)Nc2ccc(Cl)cc2Cl)c([N+](=O)[O-])n1 (centres undefined)
